Measurements from paper PMC3914206.

Columns and labels:
panel of 442 kinases [1] = target: T1, panel of 442 kinases (Homo sapiens, UniProt P36888, N841I); format: binding; conditions: Compound Concentration 10 µM
T1 construct: purchased KINOMEscan
T1 sequence (P36888 27-993 N841I): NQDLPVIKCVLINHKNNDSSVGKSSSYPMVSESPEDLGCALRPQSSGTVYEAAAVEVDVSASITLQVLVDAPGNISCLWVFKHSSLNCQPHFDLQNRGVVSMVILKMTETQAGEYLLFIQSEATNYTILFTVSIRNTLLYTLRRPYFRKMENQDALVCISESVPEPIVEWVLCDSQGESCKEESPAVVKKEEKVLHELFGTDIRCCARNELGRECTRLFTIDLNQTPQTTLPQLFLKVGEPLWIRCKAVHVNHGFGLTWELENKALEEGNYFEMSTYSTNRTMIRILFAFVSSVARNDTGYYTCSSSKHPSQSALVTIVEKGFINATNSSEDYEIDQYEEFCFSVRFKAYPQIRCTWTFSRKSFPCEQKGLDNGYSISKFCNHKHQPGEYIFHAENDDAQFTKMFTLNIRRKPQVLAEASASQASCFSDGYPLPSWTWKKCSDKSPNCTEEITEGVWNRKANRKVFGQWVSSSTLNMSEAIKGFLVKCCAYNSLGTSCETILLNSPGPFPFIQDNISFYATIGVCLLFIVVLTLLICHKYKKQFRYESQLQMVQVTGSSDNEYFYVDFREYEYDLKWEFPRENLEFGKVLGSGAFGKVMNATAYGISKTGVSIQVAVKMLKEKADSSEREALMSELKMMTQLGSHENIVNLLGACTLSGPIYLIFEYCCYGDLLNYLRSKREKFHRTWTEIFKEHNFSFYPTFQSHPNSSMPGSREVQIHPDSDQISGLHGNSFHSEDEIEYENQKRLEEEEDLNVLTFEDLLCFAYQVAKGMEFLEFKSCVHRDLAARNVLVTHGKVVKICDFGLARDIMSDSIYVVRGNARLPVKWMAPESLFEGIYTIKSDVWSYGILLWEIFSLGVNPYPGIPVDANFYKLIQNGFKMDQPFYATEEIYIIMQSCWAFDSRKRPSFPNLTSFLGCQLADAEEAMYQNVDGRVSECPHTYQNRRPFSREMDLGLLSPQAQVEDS
Source text: (§1) We assessed the selectivity of members of this scaffold using the KINOMEscan methodology across a near comprehensive panel of 442 kinases [[18,27]].

panel of 442 kinases [2] = target: T2, panel of 442 kinases (Homo sapiens, UniProt P45985); format: binding; conditions: Compound Concentration 10 µM
T2 construct: purchased KINOMEscan
T2 sequence (P45985 1-399): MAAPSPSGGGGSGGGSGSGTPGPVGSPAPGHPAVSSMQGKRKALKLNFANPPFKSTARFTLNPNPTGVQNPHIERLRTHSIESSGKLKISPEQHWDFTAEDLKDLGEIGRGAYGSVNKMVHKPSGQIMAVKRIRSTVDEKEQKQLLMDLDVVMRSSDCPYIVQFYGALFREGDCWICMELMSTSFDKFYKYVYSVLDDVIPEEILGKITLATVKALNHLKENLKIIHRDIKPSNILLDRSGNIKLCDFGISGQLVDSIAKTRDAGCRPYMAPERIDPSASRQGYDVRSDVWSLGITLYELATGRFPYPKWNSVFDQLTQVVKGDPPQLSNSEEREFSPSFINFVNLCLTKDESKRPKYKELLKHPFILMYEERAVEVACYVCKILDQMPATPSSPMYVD
Source text: as §1

| SMILES | KINOMEscan: FLT3(N841I) (panel of 442 kinases [1]) | KINOMEscan: MEK4 (panel of 442 kinases [2]) |
| --- | --- | --- |
| COc1cc(C(=O)N2CCC(N3CCN(C)CC3)CC2)ccc1Nc1ncc2c(n1)N(C)c1ccccc1C(=O)N2C [15 (LRRK2-IN-1)] | 73 | 100 |
| CCOc1cc(C(=O)N2CCC(N3CCN(C)CC3)CC2)ccc1Nc1ncc2c(n1)N(C1CCCC1)c1ccccc1C(=O)N2C [Compound 26] | 100 | 100 |
| COc1cc(C(=O)N2CCC(N3CCN(C)CC3)CC2)ccc1Nc1ncc2c(n1)N1CCc3cccc(c31)C(=O)N2C [Compound 24] | 55 | – |
| COc1cc(C(=O)N2CCC(N3CCN(C)CC3)CC2)ccc1Nc1ncc2c(n1)N(C1CCCC1)c1ccccc1C(=O)N2C [Compound 25, 11-cyclopentyl-2-((2-methoxy-4-(4-(4-methylpiperazin-1-yl)piperidine-1-carbonyl)phenyl)amino)-5-methyl-5H-benzo[e]pyrimido[5,4-b][1,4]diazepin-6(11H)-one] | 90 | 100 |
